What was measured:
Assay in all cases: relative viability (nuclei count vs DMSO), 5 days (fraction); higher = more cells survive
NCI-H596 = system: NCI-H596
How it was run: (§1)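 Relative viability divides the nuclei count in treated wells by that in vehicle wells. Lung cancer cell lines were seeded in 1536-well plates, dosed by pin tool the next day, and fixed and stained after 5 days in one step with final 0.05% Triton X-100, 1% formaldehyde and 1 ug/ml Hoechst. Dosing was a single drug or a fixed anchor-drug dose plus five library-drug doses (not always all listed) in √10 steps, and values are medians of duplicate plates imaged at 4×.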

PC-14 = system: PC-14
How it was run: as §1

NCI-H1915 = system: NCI-H1915
How it was run: as §1

NCI-H520 = system: NCI-H520
How it was run: as §1

NCI-H460 = system: NCI-H460
How it was run: as §1

LXF-289 = system: LXF-289
How it was run: as §1

NCI-H1563 = system: NCI-H1563
How it was run: as §1

NCI-H441 = system: NCI-H441
How it was run: as §1

NCI-H1792 = system: NCI-H1792
How it was run: as §1

NCI-H3122 = system: NCI-H3122
How it was run: as §1

SW 900 = system: SW 900
How it was run: as §1

NCI-H322M = system: NCI-H322M
How it was run: as §1

RERF-LC-KJ = system: RERF-LC-KJ
How it was run: as §1

NCI-H522 = system: NCI-H522
How it was run: as §1

NCI-H1355 = system: NCI-H1355
How it was run: as §1

NCI-H727 = system: NCI-H727
How it was run: as §1

NCI-H661 = system: NCI-H661
How it was run: as §1

SK-MES-1 = system: SK-MES-1
How it was run: as §1

NCI-H2347 = system: NCI-H2347
How it was run: as §1

LCLC-103H = system: LCLC-103H
How it was run: as §1

NCI-H1755 = system: NCI-H1755
How it was run: as §1

NCI-H1651 = system: NCI-H1651
How it was run: as §1

## Cc1sc2c(c1C)C(c1ccc(Cl)cc1)=N[C@@H](CC(=O)OC(C)(C)C)c1nnc(C)n1-2 [JQ1] + Cc1nc(Nc2ncc(C(=O)Nc3c(C)cccc3Cl)s2)cc(N2CCN(CCO)CC2)n1 [Dasatinib] (partner 0.075 µM)
NCI-H596; first compound 0.04 µM
  relative viability: 0.671
NCI-H596; first compound 0.1265 µM
  relative viability: 0.456
NCI-H596; first compound 0.4 µM
  relative viability: 0.559
NCI-H596; first compound 1.265 µM
  relative viability: 0.281
NCI-H596; first compound 4 µM
  relative viability: 0.29
PC-14; first compound 0.04 µM
  relative viability: 0.283
PC-14; first compound 0.1265 µM
  relative viability: 0.187
PC-14; first compound 0.4 µM
  relative viability: 0.119
PC-14; first compound 1.265 µM
  relative viability: 0.14
PC-14; first compound 4 µM
  relative viability: 0.05
NCI-H1915; first compound 0.04 µM
  relative viability: 0.281
NCI-H1915; first compound 0.1265 µM
  relative viability: 0.303
NCI-H1915; first compound 0.4 µM
  relative viability: 0.317
NCI-H1915; first compound 1.265 µM
  relative viability: 0.249
NCI-H1915; first compound 4 µM
  relative viability: 0.191
NCI-H520; first compound 0.04 µM
  relative viability: 0.206
NCI-H520; first compound 0.1265 µM
  relative viability: 0.196
NCI-H520; first compound 0.4 µM
  relative viability: 0.207
NCI-H520; first compound 1.265 µM
  relative viability: 0.159
NCI-H520; first compound 4 µM
  relative viability: 0.221
NCI-H460; first compound 0.04 µM
  relative viability: 0.5
NCI-H460; first compound 0.1265 µM
  relative viability: 0.221
NCI-H460; first compound 0.4 µM
  relative viability: 0.201
NCI-H460; first compound 1.265 µM
  relative viability: 0.171
NCI-H460; first compound 4 µM
  relative viability: 0.075
LXF-289; first compound 0.04 µM
  relative viability: 0.283
LXF-289; first compound 0.1265 µM
  relative viability: 0.117
LXF-289; first compound 0.4 µM
  relative viability: 0.212
LXF-289; first compound 1.265 µM
  relative viability: 0.156
LXF-289; first compound 4 µM
  relative viability: 0.152
NCI-H1563; first compound 0.04 µM
  relative viability: 0.446
NCI-H1563; first compound 0.1265 µM
  relative viability: 0.405
NCI-H1563; first compound 0.4 µM
  relative viability: 0.533
NCI-H1563; first compound 1.265 µM
  relative viability: 0.443
NCI-H1563; first compound 4 µM
  relative viability: 0.362
NCI-H441; first compound 0.04 µM
  relative viability: 0.558
NCI-H441; first compound 0.1265 µM
  relative viability: 0.572
NCI-H441; first compound 0.4 µM
  relative viability: 0.634
NCI-H441; first compound 1.265 µM
  relative viability: 0.273
NCI-H441; first compound 4 µM
  relative viability: 0.209
NCI-H1792; first compound 0.04 µM
  relative viability: 0.837
NCI-H1792; first compound 0.4 µM
  relative viability: 0.839
NCI-H1792; first compound 1.265 µM
  relative viability: 0.579
NCI-H1792; first compound 4 µM
  relative viability: 0.5
NCI-H3122; first compound 0.04 µM
  relative viability: 0.777
NCI-H3122; first compound 0.1265 µM
  relative viability: 0.551
NCI-H3122; first compound 0.4 µM
  relative viability: 0.582
NCI-H3122; first compound 1.265 µM
  relative viability: 0.463
NCI-H3122; first compound 4 µM
  relative viability: 0.209
SW 900; first compound 0.04 µM
  relative viability: 0.521
SW 900; first compound 0.1265 µM
  relative viability: 0.456
SW 900; first compound 0.4 µM
  relative viability: 0.298
SW 900; first compound 1.265 µM
  relative viability: 0.193
SW 900; first compound 4 µM
  relative viability: 0.135
NCI-H322M; first compound 0.04 µM
  relative viability: 0.234
NCI-H322M; first compound 0.1265 µM
  relative viability: 0.245
NCI-H322M; first compound 0.4 µM
  relative viability: 0.24
NCI-H322M; first compound 1.265 µM
  relative viability: 0.225
NCI-H322M; first compound 4 µM
  relative viability: 0.239
RERF-LC-KJ; first compound 0.04 µM
  relative viability: 0.763
RERF-LC-KJ; first compound 0.1265 µM
  relative viability: 0.646
RERF-LC-KJ; first compound 0.4 µM
  relative viability: 0.72
RERF-LC-KJ; first compound 1.265 µM
  relative viability: 0.576
RERF-LC-KJ; first compound 4 µM
  relative viability: 0.332
NCI-H522; first compound 0.04 µM
  relative viability: 0.951
NCI-H522; first compound 0.1265 µM
  relative viability: 0.641
NCI-H522; first compound 0.4 µM
  relative viability: 0.584
NCI-H522; first compound 1.265 µM
  relative viability: 0.575
NCI-H522; first compound 4 µM
  relative viability: 0.537
NCI-H1355; first compound 0.04 µM
  relative viability: 0.774
NCI-H1355; first compound 0.1265 µM
  relative viability: 0.578
NCI-H1355; first compound 0.4 µM
  relative viability: 0.617
NCI-H1355; first compound 1.265 µM
  relative viability: 0.486
NCI-H1355; first compound 4 µM
  relative viability: 0.447
NCI-H727; first compound 0.04 µM
  relative viability: 0.354
NCI-H727; first compound 0.1265 µM
  relative viability: 0.555
NCI-H727; first compound 0.4 µM
  relative viability: 0.398
NCI-H727; first compound 1.265 µM
  relative viability: 0.295
NCI-H727; first compound 4 µM
  relative viability: 0.426
NCI-H661; first compound 0.04 µM
  relative viability: 0.814
NCI-H661; first compound 0.1265 µM
  relative viability: 0.564
NCI-H661; first compound 0.4 µM
  relative viability: 0.558
NCI-H661; first compound 1.265 µM
  relative viability: 0.379
NCI-H661; first compound 4 µM
  relative viability: 0.556
SK-MES-1; first compound 0.04 µM
  relative viability: 0.338
SK-MES-1; first compound 0.1265 µM
  relative viability: 0.273
SK-MES-1; first compound 0.4 µM
  relative viability: 0.311
SK-MES-1; first compound 1.265 µM
  relative viability: 0.168
SK-MES-1; first compound 4 µM
  relative viability: 0.171
NCI-H2347; first compound 0.04 µM
  relative viability: 0.273
NCI-H2347; first compound 0.1265 µM
  relative viability: 0.395
NCI-H2347; first compound 0.4 µM
  relative viability: 0.304
NCI-H2347; first compound 1.265 µM
  relative viability: 0.371
NCI-H2347; first compound 4 µM
  relative viability: 0.235
LCLC-103H; first compound 0.04 µM
  relative viability: 0.433
LCLC-103H; first compound 0.1265 µM
  relative viability: 0.418
LCLC-103H; first compound 0.4 µM
  relative viability: 0.464
LCLC-103H; first compound 1.265 µM
  relative viability: 0.327
LCLC-103H; first compound 4 µM
  relative viability: 0.266
NCI-H1755; first compound 0.04 µM
  relative viability: 0.421
NCI-H1755; first compound 0.1265 µM
  relative viability: 0.277
NCI-H1755; first compound 0.4 µM
  relative viability: 0.373
NCI-H1755; first compound 1.265 µM
  relative viability: 0.343
NCI-H1755; first compound 4 µM
  relative viability: 0.2
NCI-H1651; first compound 0.04 µM
  relative viability: 0.384
NCI-H1651; first compound 0.1265 µM
  relative viability: 0.292
NCI-H1651; first compound 0.4 µM
  relative viability: 0.306
NCI-H1651; first compound 1.265 µM
  relative viability: 0.246
NCI-H1651; first compound 4 µM
  relative viability: 0.221

Source: the supplement of paper PMC10307832
